# Results taken from patent publication US20180163180A1, “METHOD OF ENHANCING SOMATIC CELL REPROGRAMMING WITH THE ACETYLLYSINE READER BRD3R” (THE UAB RESEARCH FOUNDATION, INC ., priority 2015, published 2018).
# Assays:
# reprogramming cells = assay: Mitotic shake-off of reprogramming cells; format: cell-based, human; conditions: day-4 reprogramming cells
# Description: • Mitotic shake-off: Reprogramming cells were prepared in T75 flasks. On day 4 of reprogramming, 1 h before mitotic shake-off, replace spent media with fresh reprogramming media. Shake the flasks at 200 rpm for 1 min and collect the media containing the shake-off mitotic cells. Add new warmed media and incubate for 10 min. Repeat these shake-off collection 2 more times. Pool the cells and centrifuge at 1,000×g for 5 min. Count the cells collected.
# reprogramming BJ cells = assay: RNA sequencing of cells on day 3 of reprogramming; format: cell-based, human
# Description: • RNA sequencing: mRNA sequencing was performed on the Illumina HiSeq2500 using the sequencing reagents and flow cells providing up to 300 Gb of sequence information per flow cell. Briefly, the quality of the total RNA was assessed using the Agilent 2100 Bioanalyzer followed by 2 rounds of polyA+ selection and conversion to cDNA. The stranded mRNA library generation kits were used per manufacturer's instructions (Agilent, Santa Clara, Calif.). Library construction consists of random fragmentation of the polyA mRNA, followed by cDNA production using random primers with inclusion of Actinomycin D in the first strand reaction. The ends of the cDNA are repaired, polyA-tailed and adaptors ligated for indexing (4 different barcodes per lane) during the sequencing runs. The cDNA libraries were quantitated using qPCR in a Roche LightCycler 480 with the Kapa Biosystems kit for library quantitation (Kapa Biosystems, Woburn, Mass.) prior to cluster generation. Clusters were generated to yield approximately 725 K to 825 K clusters/mm^2. Cluster density and quality were determined during the run after the first base addition parameters were assessed. Paired end 2×50 bp sequencing runs were run to align the cDNA sequences to the reference genome.
# • Bioinformatics: 25-65 million of paired 51 bp reads were obtained for each sample. RNA sequencing reads were mapped to the human reference genome (GRCh37/hg19) using TopHat (v2.0.13) (Kim et al., (2013) Genome Biol. 14: R36). For more accurate mapping, the mean insert sizes and the standard deviations were calculated using Picard-tools (v1.126), and were passed to the mapper along with a Gene Transfer File (GTF version GRCh37.70) and the data were re-aligned. Read count tables were generated using HT-seq (v0.6.0) (Anders et al., (2015) Bioinformatics 31: 166-169). Deferential Expression (DE) analysis was performed using DESeq (v3.0) (Anders & Huber (2010) Genome Biol. 11: R106). Cufflinks v2.2.1 (Trapnell et al., (2010) Nat. Biotechnol. 28: 511-515) and Cummerbund v3.0 (Goff et al., (2014): Visualization and Exploration of Cufflinks High-throughput Sequencing Data., pp. 45) were also used for calculating expression levels in FPKM and data visualization. The BigWig files were generated using Bedtools (v2.17.0) (Quinlan & Hall (2010) Bioinformatics 26: 841-842) and bedGraphToBigWig tool (v4). For the analysis of micro-array data, Limma v3.0 (Smyth G. K., (2005) in Bioinformatics and Computational Biology Solutions Using R and Bioconductor: Gentleman et al., Eds. (Springer: New York): Ch. 23: pp. 397-420) was used Gene Ontology (GO) analysis was conducted using PANTHER (Mi et al., (2013) Nat. Protoc. 8: 1551-1566), Cytoscape-BiNGO (Saito et al., (2012) Nat. Methods 9: 1069-1076) and DAVID (Huang da et al., (2009) Nat. Protoc. 4: 44-57). Lists of mitotic genes were compiled based on the results from the three tools.
# Human fibroblasts = assay: CyQUANT cell proliferation assay of reprogramming cells; format: cell-based; conditions: before day 9 of reprogramming
# Description: • Cell proliferation assays: Human fibroblasts were transduced with reprogramming viruses. Forty-eight hs post transduction, the reprogramming cells were plated at 4,000 cells/well of a 96-well plate. Five replicates were performed for each condition. On days 0, 1, 3, 5, 7, 9, 11 and 13, the cells were measured using a CyQUANT® NF Cell Proliferation Assay Kit (Life Technologies; c35007) per manufacturer's instruction.
# BJ cells = assay: Reprogramming of human fibroblasts scored by TRA-1-60+ colonies/clusters; format: cell-based
# Description: Briefly (FIG. 1A), 2×10^4 of BJ cells were seeded in each well of a 24-well plates. The second day, fibroblasts were transduced with OCT4 (10 MOI), SOX2 (5 MOI), KLF4 (5 MOI) along with 250 μl of individual kinase viral supernatant freshly packaged in one well of a 6-well plate. Twenty-two cDNAs were evaluated in one 24-well plate. One well is OSK control, and one well of cells is transduced with OSK plus 250 μl of GFP viral supernatant as a second control. Virus was removed next day with fresh fibroblast medium. Forty-eight hours after transduction, fibroblasts were transferred from one well into a 60-mm dish for continued reprogramming. The next day of re-seeding, fibroblast medium was replaced with E7 medium (E8 minus TGF beta) plus 100 μM of sodium butyrate. From day 18 of reprogramming on, E8 media was used. On day 25 of reprogramming, reprogramming dishes were stained for ALP or TRA-1-60 markers.
# • Concentration of virus: The reprogramming viruses (OCT4, SOX2, KLF4, MYC and BET members) were concentrated before use except for library viruses. The lentiviral supernatant was centrifuged at 3,000×g for 10 mins at 4° C. to remove the cell debris. Thirty ml of the viral supernatant was then transferred into each 50-ml tube. 7 ml of 50% PEG-6000 stock solution (final concentration of 8.5%) and 4.1 ml of 4 M NaCl stock solution was added to each tube (final concentration of 0.4 M). The virus mixture was stored at 4° C. for 3-5 h.
# • Cell culture and reprogramming: Human fibroblast cells (BJ ATCC CRL-2522®) were cultured in fibroblast medium: DMEM, 10% heat-inactivated FBS, 0.1 mM 2-mercaptoethanol, 100 U/ml penicillin, 100 μg/ml streptomycin, 0.1 mM MEM NEAA and 4 ng/ml human bFGF. For reprogramming, seed BJ cells into 24-well plate at 2×10^4 cells/well. Twenty-four hours after plating, pre-mix the OSK (OCT4, 10 MOI; SOX2, 5 MOI and KLF4, 5 MOI) viruses (shown in FIGS. 6B-6D, SEQ ID NO: 58-60, respectively), and add the OSK virus along with 250 μl supernatant of individual kinase virus into respective wells. Incubate overnight. Next morning, remove viruses by replacing virus-containing medium with fresh fibroblast medium. Twenty-four hours after transduction, the cells were re-seeded from one well into one matrigel-coated 60-mm dish. Next day, replace fibroblast medium with reprogramming media (E7 plus sodium butyrate at 100 μM). On 18 day, start to use E8 media. On day 25 of reprogramming, stain the reprogramming cells for alkaline phosphatase or TRA-1-60.
substance,measurement,setting,value
"BRD3R: BRD3 with Reprogramming activity; 556 aa isoform of human BRD3 (AAH32124, SEQ ID NO: 47), encoded by cDNA L61",mitotic cells collected compared to controls,reprogramming cells,2.43 ×
same,"expression of CDKN2A, CDKN2B, CDKN1A, TP53 (p53-p21 pathway)",reprogramming BJ cells; BRD3R reprogramming cells,Downregulation was not seen
same,AFC of CEP78,reprogramming BJ cells; day 3 of reprogramming,0.94 ×
same,AFC of ERG,reprogramming BJ cells; day 3 of reprogramming,0.84 ×
same,AFC of PSMB9,reprogramming BJ cells; day 3 of reprogramming,0.87 ×
same,number of upregulated genes in the mitotic category,"reprogramming BJ cells; of 335 GO mapped genes, day 3",128 genes
same,AFC of the 23 always upregulated mitotic genes,"reprogramming BJ cells; p<0.05, day 3",at least 2.24 ×
same,total mitotic genes statistically upregulated in at least one comparison,"reprogramming BJ cells; ≥1.5×, p<0.05, 4 IFC and 1 AFC comparisons, day 3",185 genes
same,number of genes upregulated in BRD3R-expressing cells,"reprogramming BJ cells; ≥1.7×, p<0.05, ADNRC≥50, day 3",401 genes
same,overall proliferation rate vs control cells,Human fibroblasts,comparable overall proliferation rates
same,appearance of abundant TRA-1-60+ clusters,"BJ cells; combined with 3F (OCT4, SOX2, KLF4), controls infrequent before day 10",6 days
same,reprogramming activity (TRA-1-60+ colonies),"BJ cells; used with 3F in BJ cells, compared to OSK-GFP control",more TRA-1-60^+ colonies
